In patent US20190002436A1, “RESPIRATORY SYNCYTIAL VIRUS INHIBITORS” (MEDIVIR AB, priority 2015, published 2019):

These compounds were tested on RSV (Long) (assay: RSV cytopathic effect (CPE)-based viral replication assay). Settings: HEp-2 cells infected with RSV Long at MOI 0.015; 3 days at 37° C.; cell viability by CellTiter-Glo luminescence; read-out: EC50 (nm).
Format: cell-based, respiratory syncytial virus (RSV)
In short: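 HEp-2 cells, 2,500 per well in DMEM with 2% heat-inactivated FBS, treated with 10-point compound dilutions and infected with RSV Long at MOI 0.015. After 3 days at 37 °C, 5% CO2, viability read by CellTiter-Glo luminescence; EC50 derived from CPE data.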

With CS(=O)(=O)N1CCC2(CC1)C(=O)N(Cc1ncc3ccccc3c1C1CNC(=O)C1)c1cnccc12 (centres unmarked) [Example 2041] the EC50 was 5.8 nM.

Same assay, conditions: human respiratory syncytial virus, HEp-2, 72 h, HEp-2 cells infected with RSV Long at MOI 0.015; 3 days at 37° C.; cell viability by CellTiter-Glo luminescence; read-out: EC50 (nm)

Point of comparison: COC(=O)N1CCC2(CC1)C(=O)N(Cc1ncc3cc(Cl)ccc3c1-c1ccncc1)c1cnccc12 [Example 165b, Methyl 1′-((7-chloro-4-(pyridin-4-yl)isoquinolin-3-yl)methyl)-2′-oxo-1′,2′-dihydrospiro[piperidine-4,3′-pyrrolo[2,3-c]pyridine]-1-carboxylate], EC50 1.8 nM. Against it:
- COC(=O)N1CC2(CC(n3c(=O)n(Cc4ncc5ccccc5c4CCCCO)c4ccccc43)C2)C1 [Example 17, Methyl 6-(3-((4-(4-hydroxybutyl)isoquinolin-3-yl)methyl)-2-oxo-2,3-dihydro-1H-benzo[d]imidazol-1-yl)-2-azaspiro[3.3]heptane-2-carboxylate] — 32-fold higher, 58 nM
- NC1(C(=O)N2CCC3(CC2)C(=O)N(Cc2ncc4ccccc4c2-c2cc[nH]c2)c2cnccc23)CC1 [Example 2031] — 67-fold higher, 120 nM
- O=c1n(Cc2ncc3ccccc3c2CCCCO)c2cnccc2n1C1CC1 [Example 1c, 1-cyclopropyl-3-((4-(4-hydroxybutyl)isoquinolin-3-yl)methyl)-1H-imidazo[4,5-c]pyridin-2(3H)-one] — 7.2-fold higher, 13 nM
- CNC1(C(=O)N2CCC3(CC2)C(=O)N(Cc2ncc4ccccc4c2-c2ccc(F)nc2)c2cnccc23)CC1 [Example 111c, 1′-((4-(6-fluoropyridin-3-yl)isoquinolin-3-yl)methyl)-1-(1-(methylamino)cyclopropanecarbonyl)spiro[piperidine-4,3′-pyrrolo[2,3-c]pyridin-]2′(1′H)-one] — within 1.5-fold, 1.4 nM
- O=c1n(Cc2ncc3ccccc3c2CCCCO)c2cnccc2n1S(=O)(=O)C1CC1 [Example 22b, 1-(cyclopropylsulfonyl)-3-((4-(4-hydroxybutyl)isoquinolin-3-yl)methyl)-1H-imidazo[4,5-c]pyridin-2(3H)-one] — 8.3-fold higher, 15 nM
- N#Cc1ccc2c(CCCCO)c(Cn3c(=O)n(C4CC4)c4ccncc43)ncc2c1 [Example 25, 3-((1-cyclopropyl-2-oxo-1H-imidazo[4,5-c]pyridin-3(2H)-yl)methyl)-4-(4-hydroxybutyl)isoquinoline-7-carbonitrile] — 160-fold higher, 280 nM
- NCCCC(=O)N1CCC2(CC1)C(=O)N(Cc1ncc3ccccc3c1-c1cccnc1)c1cnccc12 [Example 142, 1-(4-aminobutanoyl)-1′-((4-(pyridin-3-yl)isoquinolin-3-yl)methyl)spiro[piperidine-4,3′-pyrrolo[2,3-c]pyridin]-2′(1′H)-one] — 3.2-fold higher, 5.8 nM
- O=c1n(Cc2ncc3cc(F)ccc3c2CCCCO)c2cnccc2n1C1CC1 [Example 6g, 1-cyclopropyl-3-((7-fluoro-4-(4-hydroxybutyl)isoquinolin-3-yl)methyl)-1H-imidazo[4,5-c]pyridin-2(3H)-one] — 23-fold higher, 41 nM
- COC(=O)N1CCC2(CC1)C(=O)N(Cc1ncc3ccccc3c1-c1ccc(C#N)cc1)c1cnccc12 [Example 12b, Methyl 1′-((4-(4-cyanophenyl)isoquinolin-3-yl)methyl)-2′-oxo-1′,2′-dihydrospiro[piperidine-4,3′-pyrrolo[2,3-c]pyridine]-1-carboxylate] — 5.6-fold higher, 10 nM
- COC(=O)N1CC2(C1)C(=O)N(Cc1ncc3ccccc3c1-c1ccc(F)nc1F)c1ccccc12 [Example 96, Methyl 1′-((4-(2,6-difluoropyridin-3-yl)isoquinolin-3-yl)methyl)-2′-oxospiro[azetidine-3,3′-indoline]-1-carboxylate] — within 1.5-fold, 2.2 nM
- CC1(n2c(=O)n(Cc3ncc4ccccc4c3-c3ccc(C#N)nc3)c3ccccc32)CC1 [Example 90b, 5-(3-((3-(1-methylcyclopropyl)-2-oxo-2,3-dihydro-1H-benzo[d]imidazol-1-yl)methyl)isoquinolin-4-yl)picolinonitrile] — 2.8-fold higher, 5.1 nM
- NC(c1ccc(-c2c(CN3C(=O)C4(CCN(C(=O)C5(N)CC5)CC4)c4ccncc43)ncc3ccccc23)cn1)C(F)(F)F (centres unmarked) [Example 2042] — 12-fold higher, 22 nM
- COC(=O)N1CC2(C1)C(=O)N(Cc1ncc3ccccc3c1-c1ccncc1)c1ccccc12 [Example 97, Methyl 2′-oxo-1′-((4-(pyridin-4-yl)isoquinolin-3-yl)methyl)spiro[azetidine-3,3′-indoline]-1-carboxylate] — 4-fold lower, 0.45 nM
- NCc1ccc2c(CCCCO)c(Cn3c(=O)n(C4CC4)c4ccccc43)ncc2c1 [Example 27] — 9.4-fold higher, 17 nM
- O=C(N1CC2(C1)C(=O)N(Cc1ncc3ccccc3c1-c1cccnc1)c1ccccc12)C(F)(F)F [Example 128, 1′-((4-(Pyridin-3-yl)isoquinolin-3-yl)methyl)-1-(2,2,2-trifluoroacetyl)spiro[azetidine-3,3′-indolin]-2′-one] — 11-fold higher, 20 nM
- COC(=O)N1CC2(C1)C(=O)N(Cc1ncc3ccccc3c1-c1ccc(NS(C)(=O)=O)cc1)c1ccccc12 [Example 105, methyl 1′-((4-(4-(methylsulfonamido)phenyl)isoquinolin-3-yl)methyl)-2′-oxospiro[azetidine-3,3′-indoline]-1-carboxylate] — 2.1-fold lower, 0.85 nM
- CNC1(C(=O)N2CCC3(CC2)C(=O)N(Cc2ncc4ccccc4c2-c2ccc(C(=O)NC4CC4)nc2)c2cnccc23)CC1 [Example 109, N-cyclopropyl-5-(3-((1-(1-(methylamino)cyclopropanecarbonyl)-2′-oxospiro[piperidine-4,3′-pyrrolo[2,3-c]pyridin]-1′(2′H)-yl)methyl)isoquinolin-4-yl)picolinamide] — 2.1-fold higher, 3.8 nM

Same assay, conditions: human respiratory syncytial virus, HEp-2, 72 h, read-out: EC50 (nm)

CNC(=O)OC1CC2(C1)C(=O)N(Cc1ncc3ccccc3c1-c1ccc(C#N)nc1)c1ccccc12 (centres unmarked) [Example 89, 1′-((4-(6-Cyanopyridin-3-yl)isoquinolin-3-yl)methyl)-2′-oxospiro[cyclobutane-1,3′-indolin]-3-yl methylcarbamate] showed an EC50 of 5.8 nM.
